One assay has as its system Aβ. The experiment in a line: Aβ ELISA, brain of injected wild-type mice. In kind it is in vivo. The settings on record: 15 or 30 mg/kg i.p. daily for 2 weeks (both doses). How it is done: Aβ ELISA. Mouse brains were homogenized in tissue homogenization buffer containing 250 mM sucrose, 20 mM Tris base, protease, and phosphatase inhibitors. To measure soluble Aβ, DEA extraction was performed. Crude 10% homogenate was mixed with an equal volume of 0.4% diethylamine (DEA), sonicated, and ultracentrifuged for 1 hr at 100,000×g. The supernatant was collected and neutralized with 10% 0.5 M Tris, pH 6.8. Sensitive and specific ELISAs to rodent Aβ1-40 was purchased from IBL Transatlantic (Toronto, Canada) and conducted per the manufacturer's protocol.
(§1) To test whether BTA-EG4 alters Aβ production in vitro, primary cortical neurons were treated with BTA-EG4 (1 or 5 μM) or control (10% DMSO), and Aβ levels were measured using ELISA. […] We then examined whether BTA-EG4 can alter Aβ levels in vivo by injecting wild-type mice daily for 2 weeks with BTA-EG4 (15 or 30 mg/kg, 10% DMSO in saline, i.p.). […] Furthermore, BTA-EG4 altered APP processing in vivo, as monitored by increased sAPPα (α-secretase cleavage product) and decreased sAPPβ (β-secretase cleavage product) levels in BTA-EG4 injected wild-type mice (30 mg/kg, i.p) compared to control-injected mice (FIGS. 1E, 1F).

In the next assay the test system is APP. The experiment in a line: APP processing in vivo (sAPPα, sAPPβ immunoblot). To be noted: 30 mg/kg i.p., 2 weeks. Details: species or system wild-type mice. The method, then:
as §1
A general note: In western blotting, separated proteins are transferred to a membrane and probed.

Assay [1] has as its system RasGRF1, GluA1, GluA2, p-ERK, p-Elk. The experiment in a line: Western blot of cortex and hippocampus, 3× Tg AD mice. In kind it is in vivo. How it is done: Western blot and analysis. 3× Tg AD mice were injected with 30 mg/kg BTA-EG4 or vehicle daily for 2 weeks. After 2 weeks, the cortex and hippocampus were dissected and homogenized with RIPA buffer. Brain lysates were reduced, boiled, and run on a polyacrylamide gel followed by transfer onto nitrocellulose membrane and incubation in the following primary antibodies: rabbit anti-RasGRF1 (Santa Cruz, C-20), rabbit anti-GluA1 (Millipore, ab1504),mouse anti-GluA2 (Neuromab), rabbit anti-p-ERK (Invitrogen, 36880), or p-Elk (Cell Signal, 9181). Primary antibodies were applied overnight, washed with TBS buffer (3 washes, 5 min each), and HRP conjugated secondary antibodies were applied for 1 h. After 1 h, membranes were washed with TBS buffer (3 washes, 5 min each) and proteins were visualized by affixing the blots to autoradiography film. The density of each band was then quantified using ImageJ software (National Institutes of Health, […].) as a percentage of control following normalization to β-actin.

[2] abbreviates: hippocampus, 6-10 months, 30 mg/kg daily, 2 weeks.

Here are results for one substance from patent US20160000762A1, “IMPROVING COGNITIVE FUNCTION” (THE REGENTS OF THE UNIVERSITY OF CALIFORNIA, priority 2013, published 2016).

Consider BTA-EG4, for which the “Aβ peptide levels in brain” value in the assay with Aβ is “significantly decreased”. Besides, in the assay on APP, the sAPPα levels entry is “increased” and the sAPPβ levels entry is “decreased”. Also, the “levels of p-Elk” value in assay [1] (6-10 months) was “did not alter”. In assay [1] (13-16 months), the “levels of p-Elk” value is “did not alter”. In addition, the “levels of p-ERK and ERK” value in assay [1] (cortex and hippocampus, 6-10 months, 30 mg/kg daily, 2 weeks) is “did not have altered levels”. In assay [1] (cortex and hippocampus, 13-16 months), the “levels of AMPA receptor subunits” value is given as “no statistically significant change”. Also, the GluA2 levels result in assay [1] (cortex, 6-10 months, 30 mg/kg daily, 2 weeks) is recorded as “only a trend of an increase”. For the same substance, in assay [1] (setting [2]), the GluA1 levels entry is “without a significant change” and the GluA2 levels result is reported as “increased”.
